In patent publication US9956232B2, “Dialkyl-phosphinoyl-alkane (Dapa) compounds and compositions for treatment of lower gastrointestinal tract disorders” (priority 2016, dated 2018):
Values joined by “and” are separate entries in the source; they are usually repeats but may differ in a detail not shown here. Identical values can stand only once.

How the values were obtained:
[1] = system: pentobarbital-anesthetized male rats; assay: Shaking frequency (wet-dog shaking) of anesthetized rats after intravenous, perioral or topical delivery; format: in vivo; settings: anesthetized rat; for Shaking frequency, Intravenous: 2 mg/kg i.v., 2nd trial, counted for 15 min; for Shaking frequency, Perioral: 20 mg/kg by oral gavage, counted for 40 min; for Shaking frequency, Topical: 20 μL pure compound on shaved abdominal skin, counted for 1 hr
Experimental: In experiments conducted here, test compounds were evaluated for “wet-dog shaking” as a model of cooling sensation. Using a standardized procedure, test compounds were compared in their ability to stimulate the shaking response by intravenous injection into a cannulated femoral vein, by perioral administration, and by topical delivery to the abdominal skin.
Each rat was given two injections with a 30 min interval. […] Shaking frequency was counted for 15 min after injection. Shaking was observed immediately after i.v. injection and at least 78% of the total shakes occurred in the first 5 min after injection. The response in the second trial was at least as robust in the first trial, showing the lack of desensitization.
Test compounds were dissolved in saline and administered by oral gavage to pentobarbital-anesthetized male albino rats at 20 mg/kg at a volume of 0.1 mL/100 g body weight [N=3 to 4 rats per compound]. Shaking was counted over a 40 min period and recorded at 10-min intervals.
For topical application of DAPA, the abdominal skin of the anesthetized rat was shaved and 20 μL of the pure DAPA was applied with a micropipette onto a ˜1 cm diameter circle of skin, enclosed with a ring of cream [Baby cream “Nevskaya kosmetika Detskyi” Nevskaya Kosmetika Inc., Saint-Petersburg 192029], as shown in FIG. 5D. The number of shakes was counted for 1 hr after application.

[2] = molecular target: TRPM8 (Homo sapiens, UniProt Q7Z2W7); assay: TRPM8 receptor agonist assay (Fluo-8 calcium, FLIPR); format: cell-based; parameters: host or cells: CHO cells, stably transfected; settings: for ×Menthol: TRPM8 relative potency as repeated in Table 4; for Relative Potency: relative to menthol = 1.0 (Table 2)
Experimental: Compounds were tested on (CHO) cells stably transfected with human TRPM8 cDNAs using a Fluo-8 calcium kit and a Fluorescence Imaging Plate Reader ([…]™) instrument. […] Solutions were prepared by diluting stock solutions in a HEPES-buffered physiological saline (HBPS) solution. Test compound and control formulations were loaded in polypropylene or glass-lined 384-well plates, and placed into the FLIPR instrument (Molecular Devices Corporation, Union City, Calif., USA). Each was tested at 8 concentrations with n=4 replicates per determination. […] For […]™ assay, cells were plated in 384-well black wall, flat clear-bottom microtiter plates (Type: BD Biocoat Poly-D-Lysine Multiwell Cell Culture Plate) at approximately 30,000 cells per well. Cells were incubated at 37° C. overnight to reach a near confluent monolayer appropriate for use in a fluorescence assay. The test procedure was to remove the growth media and to add 40 μL of HBPS containing Fluo-8 for 30 minutes at 37° C. 10 μL of test compound, vehicle, or control solutions in HBPS were added to each well and read for 4 minutes. Concentration-response data were analysed via the FLIPR Control software that is supplied with the FLIPR System (MDS-AT) and fitted to a Hill equation.

[3] = system: heat-induced edema in the anesthetized rat paw; assay: Heat-induced edema in the anesthetized rat paw; format: in vivo; settings: 20 mg/mL, 0.3 mL per paw, 30 min before 58° C. water 1 min; relative to contralateral paw
Excerpt: Inflammation is defined as the reaction of vascularized living tissue to local injury [Cotran, R S. 1989. Inflammation and repair. In Robbins: Pathologic Basis of Disease, ed. S. L. Robbins, R. S. Cotran, V. Kumar, 2:39-86. Philadelphia: Saunders. 4th ed.]. The characteristic signs of inflammation are redness, swelling, heat, and pain (and loss of function). The anti-inflammatory properties of the DAPA compounds were studied in a model of heat-induced vascular leakage [Wei et al. Method of inhibiting inflammatory response. U.S. Pat. No. 4,801,612; Wei et al., Anti-inflammatory peptide agonists. Annual Review Pharmacol Toxicol. 33:9-108, 1993]. When the paws of pentobarbital-anesthetized rats (200 to 300 g body weight) are immersed in 58° C. water for 1 min, the normal paw volume of about 1.8 mL was increased by ˜88% within 30 min, the swelling being due to an increase in water content of the paw.
Test compounds were dissolved in 20% water-80% R-1,2-propanediol at 20 mg/mL. The solutions were applied to the paw skin of pentobarbital-anesthetized rats (200 to 300 g body weight) at 0.3 mL per paw, using a syringe attached to a blunt 21 gauge needle covered at its tip with a piece of polyethylene 60 tubing. After distributing the solution over the paw, the paw was tightly enclosed in a plastic finger cut from a disposable glove. The contralateral paw [control] received only the vehicle. Thirty min after application, both paws were immersed in 58° C. water for 1 min. Thirty min after immersion, both paws were cut at ankle joint with scissors and weighed.
This degree of inhibition is significant for tissue protection as the injury stimulus is of supra-maximal intensity. The DAPA-2-5 effect was apparent to the untrained observer.

[4] = molecular target: TRPV1 (Homo sapiens, UniProt Q8NER1); assay: TRPV1 selectivity assay, calcium entry in transfected HEK293 cells; format: cell-based; parameters: expressed in transfected cells; host or cells: HEK293 cells; settings: maximum tested concentration 100 μM
Excerpt: (§1) The selectivity of test compounds were examined on TRPV1 channels (human TRPV1 gene expressed in HEK293 cells) and TRPA1 channels (human TRPA1 gene expressed in CHO cells). The test cells were Chinese Hamster Ovary (CHO) cells or Human Embyronic Kidney (HEK) 293 cells transfected with human TRPV1 or TRPA1 cDNAs.
(§2) The ordinate is given in Relative Fluorescence Units; % of maximum, which measure calcium entry into the transfected cells and the abscissa is the logarithm of the concentration of the test compound.

[5] = molecular target: TRPA1 (Homo sapiens, UniProt O75762); assay: TRPA1 selectivity assay, calcium entry in transfected CHO cells; format: cell-based; parameters: expressed in transfected cells; host or cells: CHO cells; settings: maximum tested concentration 100 μM
Excerpt: as §1, §2

TRPV1, sequence (Q8NER1 whole entry): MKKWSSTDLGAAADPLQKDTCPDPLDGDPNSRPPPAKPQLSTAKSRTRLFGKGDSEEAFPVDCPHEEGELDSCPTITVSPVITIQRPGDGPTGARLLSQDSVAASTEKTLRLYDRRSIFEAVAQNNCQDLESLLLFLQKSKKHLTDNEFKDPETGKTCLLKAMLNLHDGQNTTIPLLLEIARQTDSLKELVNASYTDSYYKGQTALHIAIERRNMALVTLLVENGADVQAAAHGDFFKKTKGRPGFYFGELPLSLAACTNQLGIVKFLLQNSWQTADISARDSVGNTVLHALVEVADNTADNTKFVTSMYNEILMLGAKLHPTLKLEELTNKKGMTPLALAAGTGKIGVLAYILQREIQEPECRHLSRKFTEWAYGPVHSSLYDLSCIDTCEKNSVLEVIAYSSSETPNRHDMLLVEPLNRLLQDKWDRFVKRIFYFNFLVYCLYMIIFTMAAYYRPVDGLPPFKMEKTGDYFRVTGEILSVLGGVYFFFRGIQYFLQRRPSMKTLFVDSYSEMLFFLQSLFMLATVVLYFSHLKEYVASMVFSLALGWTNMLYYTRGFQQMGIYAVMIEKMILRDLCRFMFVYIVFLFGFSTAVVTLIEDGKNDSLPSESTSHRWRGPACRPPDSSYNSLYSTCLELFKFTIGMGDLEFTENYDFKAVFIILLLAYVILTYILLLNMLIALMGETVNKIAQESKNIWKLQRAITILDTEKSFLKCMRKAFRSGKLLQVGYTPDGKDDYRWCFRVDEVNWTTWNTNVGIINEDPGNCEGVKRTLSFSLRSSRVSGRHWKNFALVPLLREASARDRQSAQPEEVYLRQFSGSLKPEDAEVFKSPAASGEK
TRPM8, sequence (Q7Z2W7 whole entry): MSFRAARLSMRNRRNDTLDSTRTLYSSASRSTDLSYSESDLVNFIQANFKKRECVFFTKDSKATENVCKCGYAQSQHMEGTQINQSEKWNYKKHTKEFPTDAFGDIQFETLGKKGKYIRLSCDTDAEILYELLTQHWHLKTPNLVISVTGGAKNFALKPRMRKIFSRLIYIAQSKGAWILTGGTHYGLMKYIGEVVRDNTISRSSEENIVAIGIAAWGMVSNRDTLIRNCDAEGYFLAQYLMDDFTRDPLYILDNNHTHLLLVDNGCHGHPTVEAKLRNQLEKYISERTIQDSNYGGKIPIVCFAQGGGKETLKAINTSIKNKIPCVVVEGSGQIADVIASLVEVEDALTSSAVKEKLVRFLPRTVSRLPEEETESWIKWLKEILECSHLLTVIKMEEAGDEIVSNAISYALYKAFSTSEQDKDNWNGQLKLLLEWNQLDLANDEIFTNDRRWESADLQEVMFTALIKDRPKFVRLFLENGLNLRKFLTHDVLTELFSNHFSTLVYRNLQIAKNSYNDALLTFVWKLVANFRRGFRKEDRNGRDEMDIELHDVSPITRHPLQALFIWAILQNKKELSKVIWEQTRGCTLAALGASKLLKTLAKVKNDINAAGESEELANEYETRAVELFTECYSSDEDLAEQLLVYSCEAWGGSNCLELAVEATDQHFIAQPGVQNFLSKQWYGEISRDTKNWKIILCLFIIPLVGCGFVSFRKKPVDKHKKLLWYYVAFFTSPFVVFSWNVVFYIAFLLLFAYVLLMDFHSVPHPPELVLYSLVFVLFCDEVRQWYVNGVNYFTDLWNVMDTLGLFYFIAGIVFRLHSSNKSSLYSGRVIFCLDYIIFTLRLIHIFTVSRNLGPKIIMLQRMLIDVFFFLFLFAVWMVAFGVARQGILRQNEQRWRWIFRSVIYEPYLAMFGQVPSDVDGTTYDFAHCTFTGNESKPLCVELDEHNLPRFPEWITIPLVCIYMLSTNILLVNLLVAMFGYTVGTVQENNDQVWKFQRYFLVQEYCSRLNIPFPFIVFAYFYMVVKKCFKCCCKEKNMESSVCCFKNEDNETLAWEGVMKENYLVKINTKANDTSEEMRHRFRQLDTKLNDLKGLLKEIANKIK
TRPA1, sequence (O75762 whole entry): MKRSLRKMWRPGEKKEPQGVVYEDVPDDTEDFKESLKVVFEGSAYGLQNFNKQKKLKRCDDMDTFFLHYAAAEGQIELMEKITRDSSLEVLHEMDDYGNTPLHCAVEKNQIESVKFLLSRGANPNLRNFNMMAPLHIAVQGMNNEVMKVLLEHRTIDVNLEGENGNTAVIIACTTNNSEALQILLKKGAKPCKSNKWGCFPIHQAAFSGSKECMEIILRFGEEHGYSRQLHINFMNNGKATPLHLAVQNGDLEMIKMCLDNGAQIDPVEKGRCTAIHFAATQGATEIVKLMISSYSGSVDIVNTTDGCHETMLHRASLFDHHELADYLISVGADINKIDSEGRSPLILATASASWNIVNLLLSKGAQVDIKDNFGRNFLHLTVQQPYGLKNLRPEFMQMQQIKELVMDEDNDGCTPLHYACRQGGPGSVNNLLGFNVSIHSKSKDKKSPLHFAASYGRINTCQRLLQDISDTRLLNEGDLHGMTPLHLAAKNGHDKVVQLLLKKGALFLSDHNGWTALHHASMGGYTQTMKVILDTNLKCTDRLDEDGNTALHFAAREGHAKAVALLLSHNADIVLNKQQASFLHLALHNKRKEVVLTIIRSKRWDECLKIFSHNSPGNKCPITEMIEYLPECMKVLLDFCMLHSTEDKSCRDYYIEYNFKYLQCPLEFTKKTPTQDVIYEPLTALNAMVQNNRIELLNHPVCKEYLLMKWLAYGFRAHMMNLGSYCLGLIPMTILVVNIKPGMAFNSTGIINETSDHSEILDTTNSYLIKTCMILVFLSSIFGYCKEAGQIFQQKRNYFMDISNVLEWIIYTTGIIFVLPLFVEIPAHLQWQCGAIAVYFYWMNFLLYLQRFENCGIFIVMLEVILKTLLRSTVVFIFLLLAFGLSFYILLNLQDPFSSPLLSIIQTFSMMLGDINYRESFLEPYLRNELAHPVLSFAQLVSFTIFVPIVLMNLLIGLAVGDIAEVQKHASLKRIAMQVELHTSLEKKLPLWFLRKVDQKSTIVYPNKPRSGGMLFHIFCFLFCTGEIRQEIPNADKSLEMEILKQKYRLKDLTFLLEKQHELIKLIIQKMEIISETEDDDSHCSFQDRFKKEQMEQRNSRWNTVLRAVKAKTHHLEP

| Compound | Shaking frequency, Intravenous [1] [shakes] | Shaking frequency, Perioral [1] | Shaking frequency, Topical [1] [shakes] | ×Menthol [2] | Relative Potency [2] | Inhibition of Heat Edema (±S.E.M.) [3] [%] | agonist or antagonist activity on TRPV1 channels [4] | agonist or antagonist activity on TRPV1 channels ([4]; listed as DAPA-1-8) | agonist or antagonist activity on TRPA1 channels [5] | agonist or antagonist activity on TRPA1 channels ([5]; listed as DAPA-1-8) |
| --- | --- | --- | --- | --- | --- | --- | --- | --- | --- | --- |
| CCCCCCCCP(=O)(C(C)C)C(C)C [DIPA-1-8, 1-Diisopropyl-phosphinoyl-octane] | 14 ± 2 | 0 shakes | 7 ± 2 | 5.4 | 5.4 | −5.0 ± 2.7 | did not exhibit significant agonist on antagonist activity | devoid of agonist or antagonist activities | did not exhibit significant agonist on antagonist activity | devoid of agonist or antagonist activities |
| CCCCCP(=O)(C(C)C)C(C)C [DIPA-1-5, 1-Diisopropyl-phosphinoyl-pentane] | 19 ± 3 | 86 shakes and 86 ± 7 shakes | 138 ± 15 | 0.7 | 0.7 | – | – | – | – | – |
| CCCCCCCCP(=O)(C(C)CC)C(C)CC (stereo not drawn) [DAPA-2-8, 1-Di(sec-butyl) phosphinoyl-octane] | 2. | 0 shakes | 0 | 2.9 | 2.9 | – | – | – | – | – |
| CCCCCCP(=O)(C(C)CC)C(C)CC (stereo not drawn) [DAPA-2-6, 1-Di(sec-butyl) phosphinoyl-hexane] | 30 ± 3 | 0 shakes | 0 | 4.7 | 4.7 | 2.9 ± 1.4 | – | – | – | – |
| CCC(C)P(=O)(CCC(C)C)C(C)CC (stereo not drawn) [DAPA-3-2, 1-Di(sec-butyl) phosphinoyl-3-methyl-butane] | – | – | – | – | 0.9 | – | – | – | – | – |
| CCCCCP(=O)(CC(C)C)CC(C)C [DAPA-3-1, 1-Di(iso-butyl) phosphinoyl-pentane] | – | – | – | – | 0.2 | – | – | – | – | – |
| CCCCCCP(=O)(C(C)C)C(C)C [DIPA-1-6, 1-Diisopropyl-phosphinoyl-hexane] | 39 ± 4 | 56 shakes and 56 ± 5 shakes | 69 ± 8 | 1.6 | 1.6 | – | – | – | – | – |
| CCCCP(=O)(C(C)CC)C(C)CC (stereo not drawn) [DAPA-2-4, 1-Di(sec-butyl) phosphinoyl-butane] | 8 ± 2 | 0 shakes | 0 | 0.3 | 0.3 | – | – | – | – | – |
| COc1cc(CNC(=O)CCCC/C=C/C(C)C)ccc1O [capsaicin, reference compound] | – | – | – | – | – | – | active | – | – | – |
